Test results taken from patent publication US9962360B2, “Compositions and methods for enhancing hair growth, promoting skin regeneration, and wound healing” (The Hospital for Sick Children, priority 2014, dated 2018).

Key:
neonatal rat SKPs = experiment: Secondary sphere formation assay / dose-response with rat SKPs; conditions: for rat SKPs sphere number: 100 nM, neonatal rat SKPs; for sphere numbers, dose-response curve: rat SKPs
Protocol: Alp and TM were further characterized by dose-response curves with rat SKPs. […] A clonal density assay was also performed to validate the effect of drugs on SKPs self renewal and proliferation. As previously described in Jinno et al., Stem Cells 28:2027-2040, 2010, SKPs were dissociated and plated at 2,500 cells/mL in medium containing 1.6% methylcellulose. Cells were then treated with 100 nM of Alp, TM, Alp and TM, or DMSO and sphere formation was scored after 14 days. […] For comparison, cells were also treated with latanoprost (Latan), a prostaglandin (PGF2) that is bioactive in rodent and human skin. […] Finally, SKP proliferation was directly measured. Rat SKPs were cultured for 3-4 days, treated with Alp or TM daily for a further 2 days, and immunostained with the proliferation marker Ki67.

human SKPs = experiment: Dose response sphere forming assay in human SKPs cultures; conditions: for human SKPs sphere number: 100 nM; for validation of hits in dose response sphere forming assays: secondary screens, rodent and human SKPs cultures
SKPs [1] = experiment: Clonal density assay in methylcellulose (SKPs self renewal and proliferation); assay type: cell-based; conditions: for sphere numbers, comparison with latanoprost: treatment for 14 days (FIG. 1L); for sphere number versus control / sphere size versus control: 100 nM, scored after 14 days, 2,500 cells/mL, 1.6% methylcellulose
Excerpt: Finally, SKP proliferation was directly measured.

STAT3 = experiment: Western blot of phosphorylated, activated STAT3 in SKPs; conditions: 100 nM
GSK3beta = experiment: Western blot of phosphorylated, activated GSK3beta in SKPs; conditions: 100 nM
[2] = tested on: back skin wound of C57/B16 mice; experiment: Full Thickness Biopsy Punch Wound model, topical application; conditions: for Ki67-positive proliferating dermal cells at the leading edge of the newly formed dermis: 7 days post-injury; for dermal tissue regeneration (layer of new dermal tissue) / epithelial gap / wound width: day 9, morphometric analysis; for CD31-positive blood vessels in the wound bed: leading edge of the newly formed dermis; for mice fully healed on day 7: topical daily, day 7 post-wounding, none of the vehicle treated controls
Protocol: The effects of Alp and TM were further validated in in vivo rodent models. The model used was a Full Thickness Biopsy Punch Wound performed on the back skin of middle-aged (9 months old) C57/B16 mice (FIGS. 2A-2I). In these experiments, the hair on the back skin was shaved to expose skin and a 6 mm diameter wound was performed with a biopsy punch. Alp, TM, or vehicle were reconstituted in a composition of water-ethanol-propylene glycol (PG) and applied daily around the wound for the duration of 9 days. Topical analysis was performed to assess the degree of wound closure as well as morphometric analysis. For the analysis of wound closure, digital photographs were taken at day 0, 3, 7, and 9 post wounding. A ruler was used to calibrate the images and the wound margins were manually outlined. The wound closure rate was calculated as a percentage of the wound size on the day of surgery as previously reported in Johnston et al., Stem Cell Reports. […] Morphometric analyses of wound parameters were performed on hematoxylin and eosin-stained paraffin tissue sections from the central portion of the wound bed. Sections were scanned and images were stitched together to show the full wound bed. Morphometric analysis of different parameters was performed as described previously in Johnston et al., supra.

ERK1/2 = experiment: Western blot of phosphorylated, activated ERK1/2 in SKPs; conditions: 100 nM, SKPs cultured in FGF2 and EGF
back skin of mice = experiment: Skin assays: dermal thickness and proliferation after topical application; conditions: for number of Ki67 positive proliferating cells in the dermis: one week of topical treatment; for dermal thickness: three weeks of topical treatment
Protocol: Drugs were applied daily on the depilated area for the duration of three weeks. […] In the skin assays, the back hair of mice was shaved to expose skin and drugs were topically applied for the duration of one or three weeks. Skin morphology was then assessed by analyzing dermal thickness and proliferation.

CREB = experiment: Western blot of phosphorylated, activated CREB in SKPs; conditions: 100 nM
Rat SKPs = experiment: Ki67 immunostaining of rat SKP spheres; conditions: rat SKPs cultured 3-4 days, treated daily for a further 2 days
Protocol: Finally, SKP proliferation was directly measured. Rat SKPs were cultured for 3-4 days, treated with Alp or TM daily for a further 2 days, and immunostained with the proliferation marker Ki67.

Akt1 = experiment: Western blot of phosphorylated, activated Akt1 in SKPs; conditions: 100 nM
SKPs [3] = experiment: 7 day sphere assay with MEK inhibition; conditions: with 100 nM trametinib
SKPs [4] = experiment: Sphere forming assay of SKPs isolated from topically treated wound bed or skin; conditions: in vivo topical application
Protocol: To assess whether the effects of topical application of Alp and TM were specific and due to recruitment of SKPs in vivo, an experiment was performed in which the drugs were applied topically for one week on the back skin of aged wounded or not wounded mice. The wound bed or control skin was dissected and SKPs were isolated and allowed to form spheres. Secondary SKP spheres were then used in a sphere forming assay.

Compound	rat SKPs sphere number (neonatal rat SKPs)	human SKPs sphere number (human SKPs)	validation of hits in dose response sphere forming assays (human SKPs)	sphere numbers, comparison with latanoprost (SKPs [1])	phosphorylated, activated STAT3 compared to control (STAT3)	phosphorylated, activated GSK3beta compared to control (GSK3beta)	Ki67-positive proliferating dermal cells at the leading edge of the newly formed dermis [2]	dermal tissue regeneration (layer of new dermal tissue) [2]	epithelial gap [2]	wound width [2]	CD31-positive blood vessels in the wound bed [2]	mice fully healed on day 7 [2]	increase of ERK1/2 phosphorylation over basal levels (ERK1/2)	number of Ki67 positive proliferating cells in the dermis (back skin of mice)	dermal thickness (back skin of mice)	phosphorylated, activated CREB compared to control (CREB)	sphere numbers, dose-response curve (neonatal rat SKPs)	increase of Ki67-positive sphere cells (Rat SKPs)	sphere number versus control (SKPs [1])	sphere size versus control (SKPs [1])	also measured
CC[N+](CC)(CC)CCOc1ccc(/C=C/c2ccccc2)cc1 [MG 624]	increase	increase	confirmed																		
CC(C)OC(=O)CCC/C=C\C[C@@H]1[C@@H](CC[C@@H](O)CCc2ccccc2)[C@H](O)C[C@@H]1O [Latan, latanoprost]				significant increase																	
O=c1c(O)c(-c2ccc(O)cc2)oc2cc(O)cc(O)c12 [Kae, kaempferol]	increase	increase	confirmed																		
trimebutine maleate [TM]	increase	increase	confirmed	significant increase	neither Alp nor TM increased	neither Alp nor TM increased	increase	enhanced	significantly smaller	significantly smaller	increased	almost half	approximately two-fold	increased	increase	neither Alp nor TM increased	increased in a dose-dependent fashion	approximately 60%	robust increase	robust increase	phosphorylated, activated Akt1 compared to control (Akt1): neither Alp nor TM increased; compensation of the trametinib-induced decrease in sphere number (SKPs [3]): neither TM nor Alp compensated; long term self-renewal of SKPs (SKPs [4]): enhance
CCCCC[C@H](O)/C=C/[C@H]1[C@H](O)CC(=O)[C@@H]1CCCCCCC(=O)O [Alp, alprostadil]	increase	increase	confirmed	significant increase	neither Alp nor TM increased	neither Alp nor TM increased	increased	enhanced	significantly smaller	significantly smaller	increased	almost half	approximately two-fold	increased	increase	neither Alp nor TM increased	increased in a dose-dependent fashion	approximately 60%	robust increase	robust increase	phosphorylated, activated Akt1 compared to control (Akt1): neither Alp nor TM increased; compensation of the trametinib-induced decrease in sphere number (SKPs [3]): neither TM nor Alp compensated; long term self-renewal of SKPs (SKPs [4]): enhance
CCCCOc1ccc(OCCCN2CCOCC2)cc1 [Pram, pramoxine]	increase	increase	confirmed																		
